The values that follow come from patent publication US20210290593A1, “USE OF SUSTAINED-RELEASE 5-HYDROXYTRYPTOPHAN IN TREATING GASTROINTESTINAL DISORDERS” (Duke University, priority 2018, published 2021).

In general, solubility refers to the dissolved amount per volume that the medium holds. A higher solubility goes with a readily soluble substance. As usually defined, the AUC is the area under the concentration-time curve, a measure of exposure. High values mean high exposure, low ones low exposure. A word on the bioavailability: it is the share of a dose that reaches the circulation, judged against a reference dose that is usually intravenous. Usually Cmax stands for the maximum level reached in the sampled fluid or tissue.

One data set deals with mice. Briefly: Morphine-induced constipation (colonic motility). The data set is classed as in vivo, mouse. The source says:
FIG. 8. Morphine-induced constipation and reversal by 5-HTP in mice.

A further data set concerns R439H mice. The settings on record: cited from earlier work.
Data set [1] has as its system WT and R439H mice. Briefly: Colonic propulsion (glass bead expulsion time). In kind it is in vivo, mouse. On the procedure:
Mice were anesthetized with isoflurane (Baxter Pharmaceutical Products) and a glass bead (3 mm in diameter) was pushed with a fire-polished glass rod through the anus into the colon to a distance of 2 cm from the anal verge (Li et al, 2006). The time required for the mice to expel the bead was determined and used to estimate in vivo colorectal propulsion.

Data set [2] concerns WT and R439H mice. In words: Total gastrointestinal transit time (oral carmine red). In kind it is in vivo, mouse. The settings on record: 30 mg/kg intraperitoneal. On the procedure: Carmine red (300 μl; 6%; Sigma-Aldrich) suspended in 0.5% methylcellulose, which cannot be absorbed, was administered by gavage to study total GI transit time. Total GI transit time was considered as the interval between gavage and the appearance of carmine red in stool (Kimball et al, 2005).

A further data set can be described thus: Water solubility. In kind it is physicochemical. The settings on record: free base.
In a further data set the test system is animals. In words: Colonic motility, prucalopride vs 5-HTP. In kind it is in vivo. The settings on record: in animals. The source says:
FIG. 9. Colonic motility. Effect of prucalopride vs 5-HTP.

For data set [3] the following is noted: one rodent study; cited from earlier work.
A short description of data set [4]: Human 5-HTP gastrointestinal regional absorption study (plasma 5-HTP). In kind it is in vivo. To be noted: for bioavailability: read-out: Absolute bioavailability F; for Cmax: read-out: Maximal average 5-HTP plasma (CMax) levels. The method, then: Determination of absolute and regional intestinal bioavailability of 5-HTP in humans.
The free base form of 5-HTP was used (5-HTP has a water solubility of >10 mg/mL).
Colonic: 5-HTP free base saline solution 200 mg.
Intravenous: 5-HTP free base saline solution 50 mg.
Oral/Upper GI: Two 5-HTP gelatin tablets of 100 mg 5-HTP free base (200 mg total dose).
Healthy male and female volunteers aged 18 to 65 years with a body mass index (BMI) of 19 to 28 were eligible for the study. Subjects were admitted to the investigational medical unit (IMU) 2 h before 5-HTP administration and remained at the IMU for 24 h following, for blood sampling and safety assessment.
All subjects (n=12) received 5-HTP mg on 3 occasions. (1) Intra-colonic 200 mg 5-HTP solution by colonoscopy. (2) Intravenous 50 mg (IV). (3) Upper GI (oral) 5-HTP 200 mg. At least 6 days passed between each visit.
Plasma samples were collected over 24-hours after 5-HTP administration. Plasma samples were stored at −80° C. until analysis. 5-HTP and the metabolite 5-hydroxyindole-acetic-acid (5-HIAA) were quantified by liquid chromatography with mass-spectrometry detection.
The PK data were analyzed using noncompartmental (NCA) and compartmental (mixed effects) mathematical modelling approaches, to calculate area 5-HTP plasma under the curve (AUC) for each subject for each 5-HTP administration.
From FIG. 10, the area under the curve (AUC) for each route of administration was obtained, which was then used to calculate the absolute bioavailability (F) of the oral and colon routes of administration. For example, the formula for calculating F for a drug administered by the oral route (po) is given below (D is dose): […]

Data set [5] deals with isolated colon of WT and R439H mice. Briefly: Colonic migrating motor complexes (CMMC) measured in vitro. Details: species or system mouse. The method, then:
The entire colon (5-6 cm) was removed and mounted to allow spontaneous motor patterns to be video-imaged for the construction of spatiotemporal maps (Roberts et al, 2008; Roberts et al, 2007). The isolated colon was incubated in Krebs' solution until endogenous fecal pellets were expelled. The empty colon was cannulated at both ends, mounted in a horizontal organ bath, and both luminal and serosal compartments were superfused with oxygenated Krebs' solution at 35° C. The height of a reservoir connected to the oral cannula was adjusted to maintain intraluminal pressure at +2 cm HO. The anal cannula provided a maximum of 2 cm of back-pressure. The contractile activity was imaged with a Logitech Quickcam pro camera positioned 7-8 cm above the gut. Preparations were equilibrated for 30 min and four 15 min videos were captured. Spatiotemporal maps of the diameter at each point along the proximo-distal length of colon were constructed and used to quantify the frequency of CMMCs as well as the velocity and length of their propagation (Margolis et al, 2016b; Welch et al, 2014). CMMCs were defined as constrictions of the diameter of the bowel that propagated for at least 50% of the length of the preparations. For studies utilizing IR 5-HTP, a dose response curve was conducted whereby the isolated colons were exposed to concentrations of 5-HTP ranging from 1 to 10 μM, both intraluminally and extraluminally.

The conditions of data set [6]: after administration of exogenous 5-HTP; cited from earlier work.

Each structure is given as a SMILES string. “Also recorded” adds a separate entry of the source. Read-outs that look alike come from different tables or passages of the source.

With `CN1CC[C@]23c4c5ccc(O)c4O[C@H]2[C@@H](O)C=C[C@H]3[C@H]1C5` [Morphine, reference compound], the Colonic motility entry with mice (morphine 10 mg/kg) is “induced constipation, as determined by slowed colonic motility”.
Consider `CNCCC(Oc1ccc(C(F)(F)F)cc1)c1ccccc1` (stereo not shown) [fluoxetine], for which, in the data set on R439H mice, the “CNS 5-HT levels” value was “further decline in CNS 5-HT levels” and the Depressive behaviors entry is on record as “worsened their depressive behaviors”.
On to `N[C@@H](Cc1c[nH]c2ccc(O)cc12)C(=O)O` [5-HTP, 5-hydroxytryptophan], for which the “Time of colonic bead expulsion” value with WT and R439H mice [1] (30 mg/kg intraperitoneal) is 7.2 ± 1.6 min; in the data set on WT and R439H mice [1] (100 mg/kg intraperitoneal), 5.2 ± 1.6 min. Also, in the data set on mice (5-HTP 30 mg/kg), the “Colonic motility, 5-HTP by itself” value is “enhanced colonic motility”. In addition, the “Effect on morphine-induced constipation (colonic motility)” value with mice (5-HTP 30 mg/kg with morphine 10 mg/kg) was “reversed the morphine-induced constipation”. Further, the “Total in vivo GI transit time” value in the data set with WT and R439H mice [2] came out at 74.9 ± 19.5 min. Also, the solubility in “Water solubility” was > 10000 µg/mL. For the same molecule, the “Efficacy (maximal effect) on colonic motility compared to prucalopride” value in the data set on animals is “higher efficacy”. Moreover, in the data set on animals, the “Potency on colonic motility compared to prucalopride” value was “higher potency; also recorded: more potent than prucalopride at lower doses”. Further, the “Absorption by the colon vs the upper intestine” value in [3] was “absorbed equally well by the colon and the upper intestine”. Besides, the “Absorption in upper intestine compared to colon” value in data set [4] came out at 5 times. The AUC was 2040 ng·h/mL in data set [4] (both sexes, plasma, intravenous dosing 50 mg); 1500 ng·h/mL in data set [4] (both sexes, plasma, oral dosing 200 mg); 312 ng·h/mL in data set [4] (both sexes, plasma, other: intra-colonic by colonoscopy, colonic dosing 200 mg). The bioavailability was 20% in [4] (both sexes, plasma, oral 200 mg (upper GI tract)) and 4% in data set [4] (both sexes, plasma, other: intra-colonic by colonoscopy, intra-colonic 200 mg). The Cmax in [4] (both sexes, plasma, other: intra-colonic by colonoscopy, 200 mg, intra-colonic 200 mg) was 40 to 50 ng/mL; in [4] (both sexes, plasma, po, 200 mg, oral 200 mg), 370 ng/mL. For the same molecule, the Relative upper GI:colon bioavailability in data set [4] (both sexes, plasma, other: upper GI (oral) and intra-colonic compared, 200 mg, read-out: Relative upper GI tract:colon bioavailability (RBA)) came out at 20%. For the same molecule, the “Maximal average 5-HTP plasma (CMax) levels” value in data set [4] (intra-colonic 200 mg) amounted to 47 ng/mL. Also, the CMMC frequency is 0.78±0.18 CMMC/min in data set [5] (R439H colon, extraluminal 1 μM); 1.02±0.10 CMMC/min in data set [5] (R439H colon, intraluminal 1 μM); 0.60±0.20 CMMC/min in data set [5] (WT colon, extraluminal 1 μM); 0.90±0.06 CMMC/min in data set [5] (WT colon, intraluminal 1 μM). Moreover, the CMMC velocity turned out to be 3.2±0.2 mm/s in data set [5] (R439H colon, extraluminal 1 μM); 2.7±0.2 mm/s in data set [5] (R439H colon, intraluminal 1 μM); 1.4±0.5 mm/s in data set [5] (WT colon, extraluminal 1 μM); 2.3±0.2 mm/s in data set [5] (WT colon, intraluminal 1 μM). Further, the “5-HTP plasma levels needed to produce systemic pharmacological effects” value in [6] is “over 100 ng/ml”.
